These are literature values, as cited in patent publication US20210347751A1, “METHOD FOR EFFICIENT EXTRACTION OF PLANT ANTHOCYANIDIN” (priority 2018, published 2021).

Where two headings read alike, the source gives them in different places.

For data set [1] the following is noted: in vivo.

In the case of `[Cl-].[K+]` [potassium chloride], the Water solubility reads like this: (10° C.) 31.2 gram/100 g of water; (20° C.) 34.2 gram/100 g of water; (30° C.) 37.2 gram/100 g of water; (40° C.) 40.1 gram/100 g of water; (60° C.) 45.8 gram/100 g of water; (70° C.) 48.8 gram/100 g of water. Besides, the Water solubility is listed as 51.3 gram/100 g of water (80° C.), 53.9 gram/100 g of water (90° C.) and 56.3 gram/100 g of water (100° C.).
With Anthocyanins, the “bioavailability in the human body” value in data set [1] is listed as “almost zero”.
